# From US20100093702A1, “METHYLENE AMINES OF THIENO[2,3-d]PYRIMIDINE AND THEIR USE AS ADENOSINE A2a RECEPTOR ANTAGONISTS” (priority 2008, published 2010)
# Tests used:
# [1] = molecular target: T1, human adenosine A1 receptor (Homo sapiens, UniProt P30542); experiment: Adenosine A1 Receptor Functional Assay (A1GAL2); assay type: cell-based; conditions: CHO-K1 cells, cAMP inducible beta-galactosidase reporter, 4 nM r-PIA/1 uM Forskolin challenge
# T1 construct: expressed in transfected cells; host or cells: CHO-K1
# T1 sequence (P30542 1-326): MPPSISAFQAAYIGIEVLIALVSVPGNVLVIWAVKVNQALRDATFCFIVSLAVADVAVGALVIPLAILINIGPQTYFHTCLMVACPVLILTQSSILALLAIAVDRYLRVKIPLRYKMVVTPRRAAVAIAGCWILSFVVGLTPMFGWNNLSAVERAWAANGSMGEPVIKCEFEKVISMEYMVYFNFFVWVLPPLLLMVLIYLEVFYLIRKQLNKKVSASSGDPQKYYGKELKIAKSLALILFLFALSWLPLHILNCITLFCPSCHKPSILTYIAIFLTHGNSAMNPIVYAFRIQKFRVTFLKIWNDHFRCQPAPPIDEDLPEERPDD
# Protocol: Adenosine A1 Receptor Functional Assay (A1GAL2)
# To initiate the functional assay, cryopreserved CHO-K1 cells overexpressing the human adenosine A1 receptor and containing a cAMP inducible beta-galactosidase reporter gene were thawed, centrifuged, DMSO containing media removed, and then seeded with fresh culture media into clear 384-well tissue culture treated plates (BD #353961) at a concentration of 10K cells/well. Prior to assay, these plates were cultured for two days at 37° C., 5% CO2, 90% Rh. On the day of the functional assay, culture media was removed and replaced with 45 uL assay medium (Hams/F-12 Modified (Mediatech # 10-080CV) supplemented w/0.1% BSA). Test compounds were diluted and 11 point curves created at a 1000× concentration in 100% DMSO. Immediately after addition of assay media to the cell plates, […] of the appropriate test compound antagonist or agonist control curves were added to cell plates using a Cartesian Hummingbird. Compound curves were allowed to incubate at room temperature on cell plates for approximately 15 minutes before addition of a 4 nM r-PIA (Sigma P4532)/1 uM Forskolin (Sigma F3917) agonist challenge (5 uL volume). A control curve of r-PIA in 1 uM Forskolin, a DMSO/Media control, and a single dose of Forskolin were also included on each plate. After additions, cell plates were allowed to incubate at 37° C., 5% CO2, 90% Rh for 5.5-6 hours. After incubation, media was removed, and cell plates were washed 1×50 uL with DPBS w/o Ca & Mg (Mediatech 21-031-CV).
# Into dry wells, 20 uL of 1× Reporter Lysis Buffer (Promega E3971 (diluted in dH2O from 5× stock)) was added to each well and plates frozen at −20° C. overnight. For β-galactosidase enzyme calorimetric assay, plates were thawed out at room temperature and 20 μL 2× assay buffer (Promega) was added to each well. Color was allowed to develop at 37° C., 5% CO2, 90% Rh for 1-1.5 h or until reasonable signal appeared. The calorimetric reaction was stopped with the addition of 60 μL/well 1M sodium carbonate. Plates were counted at 405 nm on a SpectraMax Microplate Reader (Molecular Devices). Data was analyzed in Microsoft Excel and IC/EC50 curves were fit using a standardized macro.
# [2] = molecular target: T2, human adenosine A2a receptor (Homo sapiens, UniProt P29274); experiment: Adenosine A2a Receptor Functional Assay (A2AGAL2); assay type: cell-based; conditions: CHO-K1 cells, cAMP inducible beta-galactosidase reporter, 15 nM NECA agonist challenge
# T2 construct: expressed in transfected cells; host or cells: CHO-K1
# T2 sequence (P29274 whole entry): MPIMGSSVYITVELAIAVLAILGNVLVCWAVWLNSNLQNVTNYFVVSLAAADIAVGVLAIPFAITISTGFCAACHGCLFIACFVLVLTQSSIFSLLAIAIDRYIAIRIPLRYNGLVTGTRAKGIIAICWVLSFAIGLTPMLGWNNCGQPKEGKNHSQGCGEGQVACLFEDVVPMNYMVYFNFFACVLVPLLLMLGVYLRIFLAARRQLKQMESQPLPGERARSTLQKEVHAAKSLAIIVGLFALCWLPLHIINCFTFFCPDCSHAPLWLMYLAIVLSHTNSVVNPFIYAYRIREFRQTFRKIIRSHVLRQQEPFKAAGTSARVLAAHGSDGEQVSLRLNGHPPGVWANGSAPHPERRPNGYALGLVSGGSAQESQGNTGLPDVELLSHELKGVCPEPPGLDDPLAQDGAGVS
# Protocol: Adenosine A2a Receptor Functional Assay (A2AGAL2)
# To initiate the functional assay, cryopreserved CHO-K1 cells overexpressing the human adenosine A2a receptor and containing a cAMP inducible beta-galactosidase reporter gene were thawed, centrifuged, DMSO containing media removed, and then seeded with fresh culture media into clear 384-well tissue culture treated plates (BD #353961) at a concentration of 10K cells/well. Prior to assay, these plates were cultured for two days at 37° C., 5% CO2, 90% Rh. On the day of the functional assay, culture media was removed and replaced with 45 uL assay medium (Hams/F-12 Modified (Mediatech # 10-080CV) supplemented w/0.1% BSA). Test compounds were diluted and 11 point curves created at a 1000× concentration in 100% DMSO. Immediately after addition of assay media to the cell plates, 50 nL of the appropriate test compound antagonist or agonist control curves were added to cell plates using a Cartesian Hummingbird. Compound curves were allowed to incubate at room temperature on cell plates for approximately 15 minutes before addition of a 15 nM NECA (Sigma E2387) agonist challenge (5 uL volume). A control curve of NECA, a DMSO/Media control, and a single dose of Forskolin (Sigma F3917) were also included on each plate. After additions, cell plates were allowed to incubate at 37° C., 5% CO2, 90% Rh for 5.5-6 hours. After incubation, media was removed, and cell plates were washed 1×50 uL with DPBS w/o Ca & Mg (Mediatech 21-031-CV). Into dry wells, 20 uL of 1× Reporter Lysis Buffer (Promega E3971 (diluted in dH2O from 5× stock)) was added to each well and plates frozen at −20° C. overnight. For β-galactosidase enzyme calorimetric assay, plates were thawed out at room temperature and 20 μL 2× assay buffer (Promega) was added to each well. Color was allowed to develop at 37° C., 5% CO2, 90% Rh for 1-1.5 h or until reasonable signal appeared. The calorimetric reaction was stopped with the addition of 60 μL/well 1M sodium carbonate. Plates were counted at 405 nm on a SpectraMax Microplate Reader (Molecular Devices). Data was analyzed in Microsoft Excel and IC/EC50 curves were fit using a standardized macro.
Ki [1] [nM],Ki [2] [nM],SMILES
194,24.9,"CCc1ccc(-c2nc(N)c3cc(CN4[C@H](C)CCC[C@@H]4C)sc3n2)o1 [Example 11, 6-(2,6-Dimethyl-piperidin-1-ylmethyl)-2-(5-ethyl-furan-2-yl)-thieno[2,3-d]pyrimidin-4-ylamine]"
2990,373,"COc1cccc(-c2nc(N)c3cc(CN4CCOCC4)sc3n2)c1 [Example 84, 2-(3-Methoxy-phenyl)-6-morpholin-4-ylmethyl-thieno[2,3-d]pyrimidin-4-ylamine]"
2090,131,"CCN(CC)Cc1cc2c(N)nc(-c3ccc(C(F)F)o3)nc2s1 [Example 103, 6-Diethylaminomethyl-2-(5-difluoromethyl-furan-2-yl)-thieno[2,3-d]pyrimidin-4-ylamine]"
> 10000,404,"Nc1nc(C2CC2)nc2sc(CN3CCCC3)cc12 [Example 43, 2-Cyclopropyl-6-pyrrolidin-1-ylmethyl-thieno[2,3-d]pyrimidin-4-ylamine]"
> 610,78.2,"CCc1ccc(-c2nc(N)c3cc(CN4CCOCC4)sc3n2)o1 [Example 8, 2-(5-Ethyl-furan-2-yl)-6-morpholin-4-ylmethyl-thieno[2,3-d]pyrimidin-4-ylamine]"
> 10000,6620,"N#Cc1cncc(-c2nc(N)c3cc(CN4CCC(F)CC4)sc3n2)c1 [Example 87, 5-[4-Amino-6-(4-fluoro-piperidin-1-ylmethyl)-thieno[2,3-d]pyrimidin-2-yl]-nicotinonitrile]"
1250,300,"Nc1nc(-c2cccc(F)c2)nc2sc(CN3CCC(F)CC3)cc12 [Example 60, 2-(3-Fluoro-phenyl)-6-(4-fluoro-piperidin-1-ylmethyl)-thieno[2,3-d]pyrimidin-4-ylamine]"
> 927,208,"Cc1csc(-c2nc(N)c3cc(CN4CCOCC4)sc3n2)n1 [Example 15, 2-(4-Methyl-thiazol-2-yl)-6-morpholin-4-ylmethyl-thieno[2,3-d]pyrimidin-4-ylamine]"
> 927,> 2340,"C[C@@H]1CCC[C@H](C)N1Cc1cc2c(N)nc(-c3ccc(C(C)(C)C)s3)nc2s1 [Example 13, 2-(5-tert-Butyl-thiophen-2-yl)-6-(2,6-dimethyl-piperidin-1-ylmethyl)-thieno[2,3-d]pyrimidin-4-ylamine]"
2100,42.5,"Nc1nc(-c2ccc(C(F)F)o2)nc2sc(CN3CCCC(F)(F)C3)cc12 [Example 101, 2-(5-Difluoromethyl-furan-2-yl)-6-(3,3-difluoro-piperidin-1-ylmethyl)-thieno[2,3-d]pyrimidin-4-ylamine]"
855,733,"Nc1nc(-c2cccc(Cl)c2)nc2sc(CN3CCC(F)CC3)cc12 [Example 48, 2-(3-Chloro-phenyl)-6-(4-fluoro-piperidin-1-ylmethyl)-thieno[2,3-d]pyrimidin-4-ylamine]"
464,64.5,"C[C@@H]1CCC[C@H](C)N1Cc1cc2c(N)nc(-c3cccc(C#N)c3)nc2s1 [Example 23, 3-[4-Amino-6-(2,6-dimethyl-piperidin-1-ylmethyl)-thieno[2,3-d]pyrimidin-2-yl]-benzonitrile]"
740,209,"Nc1nc(-c2ccc3c(c2)OCO3)nc2sc(CN3CCC(F)CC3)cc12 [Example 76, 2-Benzo[1,3]dioxol-5-yl-6-(4-fluoro-piperidin-1-ylmethyl)-thieno[2,3-d]pyrimidin-4-ylamine]"
8430,1390,"N#Cc1ccc(-c2nc(N)c3cc(CN4CCC(F)CC4)sc3n2)cc1 [Example 66, 4-[4-Amino-6-(4-fluoro-piperidin-1-ylmethyl)-thieno[2,3-d]pyrimidin-2-yl]-benzonitrile]"
8550,384,"N#Cc1ccc(-c2nc(N)c3cc(CN4CCCCCC4)sc3n2)cc1 [Example 67, 4-(4-Amino-6-azepan-1-ylmethyl-thieno[2,3-d]pyrimidin-2-yl)-benzonitrile]"
144,17.3,"CC(C)c1ccc(-c2nc(N)c3cc(CN4[C@H](C)CCC[C@@H]4C)sc3n2)o1 [Example 10, 6-(2,6-Dimethyl-piperidin-1-ylmethyl)-2-(5-isopropyl-furan-2-yl)-thieno[2,3-d]pyrimidin-4-ylamine]"
634,348,"Nc1nc(-c2cc3ccccc3o2)nc2sc(CN3CCC(F)CC3)cc12 [Example 59, 2-Benzofuran-2-yl-6-(4-fluoropiperidin-1-ylmethyl)thieno[2,3-d]pyrimidin-4-ylamine]"
> 1070,958,"Nc1nc(-c2ccc(C3CC3)o2)nc2sc(CN3CCOCC3)cc12 [Example 22, 2-(5-Cyclopropyl-furan-2-yl)-6-morpholin-4-ylmethyl-thieno[2,3-d]pyrimidin-4-ylamine]"
3890,795,"Nc1nc(-c2ccc[nH]2)nc2sc(CN3CCC(F)CC3)cc12 [Example 81, 6-(4-Fluoro-piperidin-1-ylmethyl)-2-(1H-pyrrol-2-yl)-thieno[2,3-d]pyrimidin-4-ylamine]"
> 927,> 2340,"CC(C)(C)c1ccc(-c2nc(N)c3cc(CN4CCOCC4)sc3n2)s1 [Example 14, 2-(5-tert-Butyl-thiophen-2-yl)-6-morpholin-4-ylmethyl-thieno[2,3-d]pyrimidin-4-ylamine]"
3860,691,"Nc1nc(-c2ccnc(Cl)c2)nc2sc(CN3CCCCC3)cc12 [Example 104, 2-(2-Chloro-pyridin-4-yl)-6-piperidin-1-ylmethyl-thieno[2,3-d]pyrimidin-4-ylamine]"
732,27.6,"C[C@@H]1CCC[C@H](C)N1Cc1cc2c(N)nc(-c3ccc(C(F)F)o3)nc2s1 [Example 102, 2-(5-Difluoromethyl-furan-2-yl)-6-(2,6-dimethyl-piperidin-1-ylmethyl)-thieno[2,3-d]pyrimidin-4-ylamine]"
297,89.4,"Cc1csc(-c2nc(N)c3cc(CN4[C@H](C)CCC[C@@H]4C)sc3n2)n1 [Example 9, 6-(2,6-Dimethyl-piperidin-1-ylmethyl)-2-(4-methyl-thiazol-2-yl)-thieno[2,3-d]pyrimidin-4-ylamine]"
1070,150,"C[C@@H]1CN(Cc2cc3c(N)nc(-c4cccc(C#N)c4)nc3s2)C[C@H](C)O1 [Example 17, 3-[4-Amino-6-(2,6-dimethyl-morpholin-4-ylmethyl)-thieno[2,3-d]pyrimidin-2-yl]-benzonitrile]"
